Common to all, as to type: binding
Assay [1] concerns the target T1, rat bone PTH/PTHrP receptor (Rattus norvegicus, UniProt P25961, E586G).
T1 construct: expressed in transfected cells; host or cells: COS / COS-7 cells, transient, plasmid R15B (pcDNA I)
T1 sequence (P25961 27-591 E586G): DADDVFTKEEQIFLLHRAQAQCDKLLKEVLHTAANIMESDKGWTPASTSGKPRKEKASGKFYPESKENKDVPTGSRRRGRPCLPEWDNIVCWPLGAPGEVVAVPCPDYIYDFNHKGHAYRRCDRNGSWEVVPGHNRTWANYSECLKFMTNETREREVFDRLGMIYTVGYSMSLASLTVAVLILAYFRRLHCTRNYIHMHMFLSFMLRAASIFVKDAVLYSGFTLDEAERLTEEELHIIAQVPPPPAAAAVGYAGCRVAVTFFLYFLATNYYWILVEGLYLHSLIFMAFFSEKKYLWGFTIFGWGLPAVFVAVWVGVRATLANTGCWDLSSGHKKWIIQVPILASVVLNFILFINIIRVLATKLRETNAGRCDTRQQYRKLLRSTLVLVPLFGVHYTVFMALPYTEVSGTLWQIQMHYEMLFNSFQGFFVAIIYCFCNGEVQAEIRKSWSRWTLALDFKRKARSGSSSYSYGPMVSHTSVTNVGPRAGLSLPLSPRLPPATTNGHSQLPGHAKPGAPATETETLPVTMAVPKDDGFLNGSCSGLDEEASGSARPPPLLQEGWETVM
As to the kind of experiment: Radioreceptor assay, COS cells expressing rat bone PTH/PTHrP receptor (R15B). The conditions noted are these: COS cells expressing R15B, FIG. 13. As for the experimental part: (§1) In brief, the labeled peptide was dissolved in 0.1% trifluoracetic acid (TFA), applied to a C18 Sep-pak cartridge (Waters Associates, Inc., Milford, Mass.) and eluted with a solution of 60% acetonitrile in 0.1% TFA. After lyophilization, the radioligand then was applied to C18-μBondapak column (3.9 mm×30 cm. Waters Associates) and eluted over 30 min with a linear gradient of 30-50% acetonitrile-0.1% TFA at a flow rate of 2 ml/min.
(§2) COS-7 cells were grown in 15 cm plates in DMEM, 10% heat-inactivated […], 10 mg/L gentamycin until 80-90% confluent. Twenty-four hours after transfection by the DEAE/Dextran method (Sambrook et al., supra), with 1-2 μg of plasmid DNA, the cells were trypsinized and replated in multiwell plastic dishes (16 or 35 mm diameter, Costar, Cambridge, Mass.) at a cell concentration of 5×10^4 cells/cm^2). […] After continuing culture for another 48 h, radiorecepter assays were performed. The culture medium was replaced with buffer containing 50 mM Tris-HCL (pH 7.7), 100 mM NaCl, 2 mM CaCl2, 5 mM KCL, 0.5% heat-inactivated fetal bovine serum (GIBCO), and 5% heat-inactivated horse serum (KC Biological Inc., Lenexa, Kans.) immediately before studies were initiated.
(§3) Incubations were terminated by aspirating the buffer, and repeatedly (×3) washing the culture dishes, containing the adherent cells with chilled 0.9% NaCl solution, over a 15 sec period. Cell-bound radioactivity was recovered by the sequential addition (×3) of 1 N NaOH (200 μl) to each well. After 30 min at room temperature, the NaOH was transferred to a glass tube. A second and third extraction with 1 N NaOH (200 μl) were combined with the first, and the total radioactivity was counted in a γ-spectrometer (Packard Instruments, Downers Grove, Ill.).

The target of assay [2] is T2, human kidney PTH/PTHrP receptor (Homo sapiens, UniProt Q03431, L389Q).
T2 construct: The full-length human kidney PTH/PTHrP receptor cDNA, HKrk, was constructed using the BamHI/PvuII fragment of PCR clone #2 and HK-2; expressed in transfected cells; host or cells: COS-7 cells, transient (DEAE/Dextran), pcDNAI
T2 sequence (Q03431 27-593 L389Q): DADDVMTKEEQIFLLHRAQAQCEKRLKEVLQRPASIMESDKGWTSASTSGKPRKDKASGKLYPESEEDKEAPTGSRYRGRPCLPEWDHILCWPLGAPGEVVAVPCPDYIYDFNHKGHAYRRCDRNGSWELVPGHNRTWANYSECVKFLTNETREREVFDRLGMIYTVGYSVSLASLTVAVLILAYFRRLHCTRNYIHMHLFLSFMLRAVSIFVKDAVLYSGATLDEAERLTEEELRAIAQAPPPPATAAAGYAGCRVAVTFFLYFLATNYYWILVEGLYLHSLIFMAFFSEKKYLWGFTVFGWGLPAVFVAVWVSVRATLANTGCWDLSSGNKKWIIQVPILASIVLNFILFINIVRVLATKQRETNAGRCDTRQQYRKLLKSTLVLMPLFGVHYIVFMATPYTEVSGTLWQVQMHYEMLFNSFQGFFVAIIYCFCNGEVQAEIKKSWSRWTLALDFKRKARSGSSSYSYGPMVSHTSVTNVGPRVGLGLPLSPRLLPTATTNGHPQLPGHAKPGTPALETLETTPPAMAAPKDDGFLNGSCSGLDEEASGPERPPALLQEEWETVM
The assay can be described thus: Radioreceptor assay, COS-7 cells transiently expressing human kidney PTH/PTHrP receptor (HKrk). Conditions: human versus rat receptor. On the procedure:
as §1, §2, §3

Assay [3] addresses T3, opossum kidney PTH/PTHrP receptor clone, OK-H (Didelphis virginiana, UniProt P25107, I132F/S86P).
T3 construct: expressed in transfected cells; host or cells: COS cells, transient, plasmid OK-H (pcDNA I)
As to the kind of experiment: Radioreceptor assay, COS cells expressing OK-H. The conditions noted are these: FIG. 9. As for the experimental part: as §1, §2, §3

The target in assay [4] is T4, opossum kidney PTH/PTHrp receptor clone, OK-O (Didelphis virginiana, UniProt P25107, I132F/S86P).
T4 construct: expressed in transfected cells; host or cells: COS cells, transient, plasmid OK-O (pcDNA I)
The assay can be described thus: Radioreceptor assay, COS cells expressing OK-O. The conditions noted are these: FIG. 11. As for the experimental part:
[Nle^8,Nle^18,Tyr^34]bPTH-(1-34)amide (NlePTH), and [Tyr^36]PTHrP(1-36)amide(PTHrP) were iodinated with Na^125I (carrier free, New England Nuclear, Boston, Mass.) as previously reported (Segre et al., J. Biol. Chem. 254: 6980, 1979), and purified by reverse-phase HPLC. In brief, the labeled peptide was dissolved in 0.1% trifluoracetic acid (TFA), applied to a C18 Sep-pak cartridge (Waters Associates, Inc., Milford, Mass.) and eluted with a solution of 60% acetonitrile in 0.1% TFA. After lyophilization, the radioligand then was applied to C18-μBondapak column (3.9 mm×30 cm. Waters Associates) and eluted over 30 min with a linear gradient of 30-50% acetonitrile-0.1% TFA at a flow rate of 2 ml/min. The radioligand eluted in two peaks; the first peak, which eluted at approximately 38% acetonitrile, was used in these studies because it gave higher total and specific bindings. The specific activity was 500±75 mCi/mg, which corresponds to an average iodine-peptide ratio of 1.
COS-7 cells were grown in 15 cm plates in DMEM, 10% heat-inactivated […], 10 mg/L gentamycin until 80-90% confluent. Twenty-four hours after transfection by the DEAE/Dextran method (Sambrook et al., supra), with 1-2 μg of plasmid DNA, the cells were trypsinized and replated in multiwell plastic dishes (16 or 35 mm diameter, Costar, Cambridge, Mass.) at a cell concentration of 5×10^4 cells/cm^2). Cell number increased only slightly after transfection. After continuing culture for another 48 h, radiorecepter assays were performed. […]
Incubations were terminated by aspirating the buffer, and repeatedly (×3) washing the culture dishes, containing the adherent cells with chilled 0.9% NaCl solution, over a 15 sec period. Cell-bound radioactivity was recovered by the sequential addition (×3) of 1 N NaOH (200 μl) to each well. […] A second and third extraction with 1 N NaOH (200 μl) were combined with the first, and the total radioactivity was counted in a γ-spectrometer (Packard Instruments, Downers Grove, Ill.). […]

Experimental findings from patent publication US7150974B1, “Parathyroid hormone receptor binding method” (The General Hospital Corporation, priority 1991, dated 2006) are described below.

T4 sequence (P25107 27-585 S86P/I132F): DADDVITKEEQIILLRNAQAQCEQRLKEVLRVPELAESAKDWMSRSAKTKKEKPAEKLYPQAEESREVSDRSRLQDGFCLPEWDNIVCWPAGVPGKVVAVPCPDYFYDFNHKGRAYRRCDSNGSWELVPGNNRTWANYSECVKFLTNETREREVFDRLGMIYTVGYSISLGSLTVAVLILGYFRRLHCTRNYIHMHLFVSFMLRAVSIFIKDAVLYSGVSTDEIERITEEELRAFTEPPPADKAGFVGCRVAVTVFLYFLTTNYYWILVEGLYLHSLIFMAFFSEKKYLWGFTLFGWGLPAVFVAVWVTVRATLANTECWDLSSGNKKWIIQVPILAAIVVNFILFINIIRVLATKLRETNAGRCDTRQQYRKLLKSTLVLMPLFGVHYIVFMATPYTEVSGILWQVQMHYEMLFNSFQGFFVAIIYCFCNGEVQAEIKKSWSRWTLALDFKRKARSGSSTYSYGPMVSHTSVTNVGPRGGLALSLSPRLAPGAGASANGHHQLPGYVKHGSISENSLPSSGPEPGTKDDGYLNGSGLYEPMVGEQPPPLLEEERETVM
T3 sequence (P25107 other isoform, or with tags, fused parts or gaps S86P/I132F): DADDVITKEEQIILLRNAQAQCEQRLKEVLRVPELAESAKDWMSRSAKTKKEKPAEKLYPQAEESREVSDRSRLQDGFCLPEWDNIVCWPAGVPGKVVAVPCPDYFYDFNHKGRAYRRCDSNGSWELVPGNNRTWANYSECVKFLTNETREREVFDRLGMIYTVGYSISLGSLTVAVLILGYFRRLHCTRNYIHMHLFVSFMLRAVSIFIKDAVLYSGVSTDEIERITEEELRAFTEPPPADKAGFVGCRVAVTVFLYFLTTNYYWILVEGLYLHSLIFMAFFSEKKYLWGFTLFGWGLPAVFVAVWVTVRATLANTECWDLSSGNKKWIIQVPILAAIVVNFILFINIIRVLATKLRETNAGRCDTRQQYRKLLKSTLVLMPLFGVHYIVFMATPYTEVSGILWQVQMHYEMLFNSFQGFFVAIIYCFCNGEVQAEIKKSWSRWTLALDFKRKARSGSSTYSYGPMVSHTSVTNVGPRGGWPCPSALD

As for [Nle^8,18, Tyr^34]bPTH(3-34)amide, the “inhibition of 125I-PTHrP binding by competitor” value in assay [1], in assay [3] and in assay [4] was “inhibited” in each case. In addition, in assay [2], the “fold higher affinity with expressed HKrK than with R15B” value was found to be 7 fold.

Consider [Nle^8,18, Tyr^34]bPTH(7-34)amide, for which the “inhibition of 125I-PTHrP binding by competitor” value in assay [1], in assay [3] and in assay [4] was “inhibited” throughout.
